Assay results published in PubChem BioAssay (NCI).
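96-well plates; 48 h exposure; 5 concentrations. Endpoints by linear interpolation between flanking doses. Not reached: highest tested concentration assigned. GI50 = concentration required for 50% inhibition of growth. TGI marks complete inhibition of growth.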

What was measured:
Assay in all cases: growth of human tumour cells (NCI), 48 h
[1] = system: SF-268 CNS
[2] = system: SF-295 CNS
[3] = system: HT29 colon
[4] = system: HOP-62 NSCLC
[5] = system: U251 CNS
[6] = system: NCI/ADR-RES ovarian
[7] = system: UO-31 renal
[8] = system: MDA-MB-231 breast
[9] = system: SK-MEL-28 melanoma
[10] = system: SK-OV-3 ovarian

Compound	TGI [1] [µM]	TGI [2] [µM]	TGI [3] [µM]	TGI [4] [µM]	TGI [5] [µM]	TGI [6] [µM]	TGI [7] [µM]	TGI [8] [µM]	TGI [9] [µM]	TGI [10] [µM]	GI50 [1] [nM]	GI50 [2] [nM]	GI50 [3] [nM]	GI50 [4] [nM]	GI50 [5] [nM]	GI50 [7] [nM]	GI50 [8] [nM]	GI50 [9] [nM]
CC(C)(CO[C@H]1C[C@H]2CC[C@@]1(C)C2(C)C)[N+](=O)[O-]	> 100	33.9	30.6	38.4	31.5	90.3	25.8	34.6	34.9	> 100	–	–	–	–	–	–	–	–
COC(=O)C1=C(CCCCO[Si](C)(C)C(C)(C)C)NC(=O)N2[C@H](CCOCc3ccccc3)CC[C@@H]12	> 100	> 100	–	> 100	> 100	> 100	> 100	> 100	> 100	> 100	–	–	–	–	–	–	–	–
O=C(O)CSC(CC(=O)c1ccc(Cl)cc1)c1ccc(Cl)cc1 (stereo not given)	79	> 100	> 100	97.1	> 100	> 100	> 100	> 100	–	97.9	–	–	–	–	–	–	–	–
Nc1[nH]c(=O)nc2c1ncn2C1OC(CO)C(O)C1O (stereo not given)	> 100	> 100	> 100	> 100	> 100	51.1	> 100	> 100	> 100	> 100	–	–	–	–	–	–	–	–
CCCCCC[C@H]([C@H](C)O)n1cnc2c(N)ncnc21	> 100	> 100	> 100	> 100	> 100	> 100	> 100	> 100	> 100	> 100	–	–	–	–	–	–	–	–
Cc1c(C)c2c(c(N)c1C#N)C(=O)N(N)C2=O	> 100	> 100	> 100	–	> 100	> 100	> 100	> 100	> 100	> 100	–	–	–	–	–	–	–	–
C/C(=N\Nc1nc2ccccc2s1)c1ccncn1	9.56	20.5	14	> 36.3	> 100	1.67	10.2	> 46.9	> 100	> 32.1	–	–	–	–	–	–	–	–
Cc1ccccc1NC(=O)O/N=C(\Cl)C(C)C	45.1	33.7	11.7	33.4	39.9	33.7	31.3	32.7	6.25	32.8	–	–	–	–	–	–	–	–
COc1cc2c(cc1O)C1Cc3ccc(OC)c(O)c3C[N+]1(C)CC2 (stereo not given)	> 100	> 100	> 100	> 100	> 100	> 100	> 100	> 100	> 100	> 100	–	–	–	–	–	–	–	–
C=C(C)C1CC(=O)C(C)=C(O)C1 (stereo not given)	> 100	> 100	> 100	> 100	> 100	> 100	> 100	> 100	> 100	> 100	–	–	–	–	–	–	–	–
COc1cc2c(/C=C3/C(=O)Nc4ccccc43)c(Cl)n(Cc3ccc(Cl)cc3)c2cc1C	21.3	3.06	–	0.821	1.23	0.612	17.6	0.754	22.9	2.85	–	–	–	–	–	–	–	–
C=C1c2nc3ccccc3n2C=C(c2ccc(C)cc2)N1c1ccc(OC)cc1	> 100	> 100	> 91.2	> 100	> 100	> 94.8	> 100	> 100	> 100	> 100	–	–	–	–	–	–	–	–
N#CCCC(C=O)(CCC#N)CCC#N	> 100	> 100	> 100	–	> 100	> 100	> 100	> 100	> 100	> 100	–	–	–	–	–	–	–	–
CCN(CC)C(=S)SC(C(=O)Nc1nnc(-c2ccc(Cl)cc2)o1)c1ccccc1 (stereo not given)	67	48.2	16.9	43.1	65.3	30.5	52.1	77.7	33.5	31.4	–	–	–	–	–	–	–	–
CCOC(=O)c1c(N)sc2c1C(C(=O)OCC)CCCC2 (stereo not given)	–	–	> 100	> 100	> 100	–	> 100	> 100	> 100	–	–	–	–	–	–	–	–	–
O=C(CNc1ccccc1C(=O)O)Nn1cnc2ccc(S(=O)(=O)Nc3ccccc3C(=O)O)cc2c1=O	> 100	> 100	> 100	> 100	> 100	> 100	> 100	> 100	> 100	> 100	–	–	–	–	–	–	–	–
Cc1nc(NC(C)(CO)CO)nc(N/N=C/c2ccc(Cl)cc2)c1C(=O)Nc1ccc(Cl)cc1	> 100	> 100	> 100	> 100	> 100	> 100	> 100	> 100	> 100	> 100	–	–	–	–	–	–	–	–
CN(CCCCCl)P(=O)(OCc1ccc([N+](=O)[O-])o1)OCC1OC(n2ccc(N)nc2=O)C(O)C1O (stereo not given)	> 100	57.7	41.4	66.8	11.1	> 100	> 100	67.3	> 100	38.3	–	–	–	–	–	–	–	–
CCOP(=O)(/C=C/n1cc(C)c(=O)[nH]c1=O)OCC	> 100	> 100	> 100	> 100	> 100	> 100	–	> 100	> 100	> 100	–	–	–	–	–	–	–	–
O=[N+]([O-])c1ccc(-n2nc3ccc4nonc4c3n2)cc1	> 100	87.9	> 100	44.7	> 100	> 100	62.9	> 100	> 100	56.5	–	–	–	–	–	–	–	–
N#Cc1c(-c2ccc([N+](=O)[O-])cc2)c(C#N)c(=O)n(NS(=O)(=O)c2ccccc2)c1S	> 100	> 100	> 100	> 100	> 100	> 100	–	44.7	> 100	> 100	–	–	–	–	–	–	–	–
CSC(SC)=C(C(=O)c1ccc(Cl)cc1)n1c(=O)sc2cc(Br)ccc21	> 100	> 100	> 100	> 100	> 100	> 100	> 100	> 100	> 100	> 100	–	–	–	–	–	–	–	–

Compound	TGI [1] [µM]	TGI [2] [µM]	TGI [3] [µM]	TGI [4] [µM]	TGI [5] [µM]	TGI [6] [µM]	TGI [7] [µM]	TGI [8] [µM]	TGI [9] [µM]	TGI [10] [µM]	GI50 [1] [nM]	GI50 [2] [nM]	GI50 [3] [nM]	GI50 [4] [nM]	GI50 [5] [nM]	GI50 [7] [nM]	GI50 [8] [nM]	GI50 [9] [nM]
Cn1c(=O)c2c(nc3[nH]c(=O)c(Br)cn32)n(C)c1=O	> 100	> 100	> 100	> 100	> 100	> 100	> 100	> 100	> 100	> 100	–	–	–	–	–	–	–	–
O=C1[C@@H]2[C@@H](CN3CN(c4ccccc4)N=C(c4ccccc4)[C@@]23c2ccccc2)C(=O)N1c1ccccc1	47.1	30.2	6.22	30	> 65.6	49.2	3.29	16.6	26	27.7	–	–	–	–	–	–	–	–
COc1ccc(-c2ccc(C(=O)C=P(c3ccccc3)(c3ccccc3)c3ccccc3)cc2)cc1	71.4	40.3	19.4	43.9	31.9	37.5	13	30.7	32	34.9	–	–	–	–	–	–	–	–
COc1cc2c(cc1OC)C(=O)N(c1ccc(OCCN3CCCC3)cc1)C2	> 100	> 100	> 100	> 100	> 100	> 100	–	> 100	> 100	> 100	–	–	–	–	–	–	–	–
O=C1c2ccccc2-c2nc3ccncc3n21	> 100	> 100	> 100	> 100	> 100	> 100	> 100	–	> 100	> 100	–	–	–	–	–	–	–	–
CCC1(O)CC(CCN(Cc2ccccc2)C(=O)OCc2ccccc2)C(OCc2ccccc2)C1O (stereo not given)	–	28.2	31	29.6	> 100	25.7	33.7	87.3	36.4	34.6	–	–	–	–	–	–	–	–
COC(=O)[C@]1(c2cc3ccccc3n2S(=O)(=O)c2ccccc2)CC2CN(C(=O)OCc3ccccc3)C1C1OC(C)(C)OC21 (stereo not given in full)	–	> 100	> 100	> 100	> 100	> 100	> 100	> 100	> 100	> 100	–	–	–	–	–	–	–	–
O=C(O)c1c(CC(Cc2ccc3c(c2)CCC3)C(=O)O)ccc2c1CCC2 (stereo not given)	–	> 100	> 100	> 100	> 100	> 100	> 100	> 100	> 100	–	–	–	–	–	–	–	–	–
O=C1c2cc3c(cc2-c2c1c1cc(F)c(F)cc1c(=O)n2CCCn1ccnc1)OCO3	> 100	0.0133	> 100	0.0477	10.2	–	0.814	> 100	> 100	–	< 10	< 10	18.9	< 10	< 10	46.5	311	228
CCOC(=O)c1cc(-c2ccc(OC)cc2)c([N+](=O)[O-])[nH]1	> 10	> 10	> 10	> 10	> 10	–	> 10	> 10	> 10	> 10	–	–	–	–	–	–	–	–
CC(=O)C(=Cc1cn(C)c(=O)n(C)c1=O)C(C)=O	526	254	278	400	223	286	175	–	209	327	–	–	–	–	–	–	–	–
CCc1nc(N)c2nc(-c3cccs3)oc2n1	> 100	> 100	> 100	> 100	> 100	> 100	> 100	> 100	> 100	–	–	–	–	–	–	–	–	–
NC(=O)CCC(N=c1c2ccccc2n(O)c2ccccc12)C(=O)O (stereo not given)	> 100	> 100	–	> 100	> 100	–	> 100	–	89.4	> 100	–	–	–	–	–	–	–	–
N[C@@H](CCC(=O)NC(Cc1ccccc1)C(=O)NCP(=O)(O)O)C(=O)O (stereo not given in full)	–	> 100	> 100	> 100	> 100	> 100	> 100	> 100	> 100	–	–	–	–	–	–	–	–	–
COP(=O)(OC)OCN(C)CC/C=C(\C)CC/C=C(\C)CCC=C(C)C	30.8	32.5	–	29.7	37.6	30.5	28.3	56.3	32.6	> 100	–	–	–	–	–	–	–	–
CC(C)(C)C(=O)Nc1c(C=O)ccc2[nH]cnc12	> 100	> 100	–	> 100	> 100	> 100	> 100	> 100	> 100	> 100	–	–	–	–	–	–	–	–
Cc1ccccc1NC(=O)CSc1nnc(-c2ccc(N=Cc3ccc(Cl)cc3)cc2)o1	> 100	> 100	> 100	> 100	> 100	–	> 100	–	> 100	> 100	–	–	–	–	–	–	–	–
N#Cc1nc(CCc2nc(C#N)c(N)o2)oc1N	> 10	> 10	> 10	> 10	–	> 10	> 10	> 10	> 10	> 10	–	–	–	–	–	–	–	–
CC1=C(CO)C(=O)OC(C(C)C2CCC3C4CC5OC56C(O)C(N5CC5)=CC(=O)C6(C)C4CCC23C)C1 (stereo not given)	15.5	33.7	13.7	40.7	15.1	–	25.7	–	31.1	–	–	–	–	–	–	–	–	–
CC(C)(C)C1CCC2c3c([nH]c4ccccc34)C3C(=O)N(c4ccc([N+](=O)[O-])cc4)C(=O)C3C2C1 (stereo not given)	34.8	93.8	19.2	33.8	38.5	41	–	48.4	> 100	73.9	–	–	–	–	–	–	–	–
CC(Nc1ccc(Cl)cc1)c1ccncc1 (stereo not given)	> 100	> 100	> 100	> 100	> 100	> 100	> 100	–	> 100	11.8	–	–	–	–	–	–	–	–
CC(C)CCCC(C)[C@H]1CCC(C2C[C@@H](O)[C@@H]3CC(O)[C@@H](O)C[C@]3(CO)C2=O)[C@]1(C)CCO (stereo not given in full)	54.1	40	36.3	52.8	37.7	> 100	49.8	–	40.5	67.1	–	–	–	–	–	–	–	–
